Literature values as cited in patent US20150051382A1 (CARDIOPEP PHARMA GMBH, priority 2010, published 2015).

Key:
[1] = test system: patients with chronic congestive heart failure; conditions: 15 ng/kg/min, 10-hour infusion
[2] = test system: patients with moderate asthma affliction; conditions: brief infusion; healthy and diseased subjects
[3] = test system: patients with chronic congestive heart failure

urodilatin
effect as compared to other natriuretic peptides, such as ANP (dogs): better effect
central venous pressure (CVP) ([1]; after 5 hours of infusion): increases slightly
urine flow ([1]; after 8 hours of infusion): loss of action
effect on bronchoconstriction [2]: temporary biological effect
changes of the baseline in pulmonary capillary wedge pressure (PCWP) ([3]; 15+30 ng/kg/min, compared with the placebo group): significant reductions
changes of the cardiac index (CI) ([3]; 15 and 30 ng/kg/min): significant increase
cardiac index (CI), reversal of effect ([3]; after 6 to 8 hours of infusion): partial drop of CI
pulmonary capillary wedge pressure (PCWP), reversal of effect ([3]; after 6 to 8 hours of infusion): slight increase of PCWP
symptoms, morbidity and mortality ([3]; all doses): significantly improved
acute survival rate and hospital dwelling time ([3]; human, in vivo): significantly and relevantly influenced
